What all share (test): NCI tumour cell line growth inhibition, 48 h
For test [1], the system named is SK-OV-3 ovarian.
Test [2] deals with CCRF-CEM leukemia.
The test system of test [3] is UACC-257 melanoma.
Test [4] has as its system HCT-116 colon.
Test [5] concerns SNB-19 CNS.
The subject of test [6] is OVCAR-3 ovarian.
For test [7], the system named is A549 NSCLC.
Test [8] relates to HT29 colon.
Test [9] concerns OVCAR-4 ovarian.
Test [10] has as its system HOP-62 NSCLC.

“And” between values parts separate entries of the source, which are not always exact repeats. Identical values can stand only once.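 Grown in 96-well plates, cells were treated for 48 hours with each compound at five concentrations. Insufficient inhibition: endpoint recorded as highest concentration tested. GI50 is the concentration that inhibits growth by half. TGI: total growth inhibition.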

Consider `CN(C)c1ccc2nc3ccc(=[N+](C)C)cc-3sc2c1`, for which the GI50 in test [1] is 2.63 µM and 5.11 µM; in test [2] it was 0.394 µM and 0.685 µM; in test [3] it was 0.219 µM and 0.411 µM; in test [4], 0.29 µM and 0.373 µM; in test [5] it was 0.908 µM and 0.543 µM; in test [6], 0.307 µM and 0.3 µM. Moreover, the GI50 in test [7] is 0.236 µM and 0.321 µM; in [8] it was 3.41 µM and 4.14 µM; in test [9], 0.192 µM and 0.295 µM; in test [10] it was 2.47 µM and 4.89 µM. The TGI is 12.6 µM and 25.9 µM in [1]; 0.711 µM and 2.36 µM in test [3]; 2.45 µM and 5.76 µM in test [4]; 16.3 µM and 46.1 µM in test [5]; 1.66 µM in [6]; 3.3 µM and 12 µM in test [7]. Moreover, the TGI was 11.2 µM and 20.8 µM in test [8]; 1.25 µM and 3.79 µM in [9]; 15.9 µM and 21.9 µM in [10].

On to `CC(C)(O)CC(=O)NCCn1ccc2ncnc(Nc3ccc(Oc4cccc(C(F)(F)F)c4)c(Cl)c3)c21`, for which the GI50 in [1] is 0.284 µM; in [2], 3.26 µM; in [4], 2.92 µM; in test [5] it was 3.91 µM; in [6], 2.42 µM; in test [7], 3.05 µM. Moreover, the GI50 in [8] was 3.83 µM; in test [9], 5.22 µM; in [10], 4.7 µM. For the same compound, the TGI in [1], in test [2], in test [3], in test [4], in [5] and in [6] was above 10 µM each time. For the same compound, the TGI in test [7], in test [8], in [9] and in test [10] was above 10 µM in each case.

As to `O=C1c2c(O)cccc2C(C2OC(CO)C(O)C(O)C2O)c2cc(CO)cc(O)c21` (configuration not stated), the TGI in test [1], in test [2], in test [3], in test [4], in test [5] and in test [6] was above 100 µM in each case. Besides, the TGI in test [7], in test [8], in [9] and in [10] was above 100 µM each time. In addition, the GI50 in [6] was 43.9 µM and > 100 µM.

Turning to `COc1ccc(OC)c(NC(=O)CCC/C(CC(=O)c2ccc(O)c(OC)c2)=N\Nc2ccc([N+](=O)[O-])cc2)c1`, the TGI in test [1], in test [2], in test [3], in [4], in test [5] and in test [6] was above 100 µM throughout. Besides, the TGI in test [7], in test [8], in test [9] and in test [10] was above 100 µM each time.

As to `CN(C(=O)c1ccco1)C(=S)N1CCN(c2ccccc2)CC1`, the TGI in test [1], in [2], in [3], in test [4], in test [5] and in test [6] was above 100 µM each time. Further, the TGI in test [7], in [8], in [9] and in [10] was above 100 µM in each case.

Regarding `CCOC(=O)C(=Cc1cccnc1C)C(=O)OCC`, the TGI in test [1] was 25 µM; in test [2], above 100 µM; in test [3], 20.7 µM; in test [4], 17.9 µM; in [5], 23.6 µM; in [6], 8.67 µM. In addition, the TGI in test [7] was 51.3 µM; in test [8], 18.4 µM; in test [9], 27.4 µM; in test [10] it was 40.7 µM.

`COc1ccc(OC)c(-c2c(C#N)c(N)nc(N3CCOCC3)c2C#N)c1`: the GI50 was 11.9 µM in test [1]; above 100 µM in [2]; 39.4 µM in [3]; above 100 µM in test [4]; above 100 µM in test [5]; 39.3 µM in test [6]. The GI50 in test [7] is above 100 µM; in test [8] it was above 100 µM; in [9] it was 43.6 µM; in [10] it was 65.3 µM. The TGI in test [1], in test [2], in test [3], in test [4], in test [5] and in test [6] was above 100 µM throughout. In addition, the TGI in test [7], in [8], in [9] and in test [10] was above 100 µM in each case.

On to `Cc1cccc(C(C)C)c1NC(=O)CC1C(=O)Nc2ccccc2S1(=O)=O` (configuration not stated), for which the TGI is above 100 µM in test [1]; 30.2 µM in test [2]; above 70.8 µM in test [3]; above 46.9 µM in test [4]; above 68 µM in test [5]; 38.5 µM in [6]. Also, the TGI was 39.3 µM in [7], 26.8 µM in test [8], 29 µM in [9] and above 100 µM in [10].

`O=C1CC(S(=O)(=O)O)C=C1Nc1cccc(Cl)c1` (configuration not stated): the TGI in test [1], in test [2], in test [3], in test [4], in test [5] and in [6] was above 100 µM each time. Besides, the TGI in test [7], in [8], in [9] and in test [10] was above 100 µM each time.

For `CN(C)c1ccc2c(c1)OC(N)=C(C#N)C2c1ccc2c(c1)CCO2` (configuration not stated), the GI50 in [1] is 0.224 µM; in test [2], 0.216 µM; in test [3] it was 27 µM; in test [4], below 0.0201 µM; in test [5] it was 1.17 µM; in [6], below 0.0213 µM. In addition, the GI50 is 0.198 µM in [7], 0.321 µM in test [8] and 0.704 µM in test [9]. For the same compound, the TGI in test [1] is above 73.9 µM; in test [2], above 52.6 µM; in test [3], above 100 µM; in test [4] it was 8.52 µM; in test [5], above 100 µM; in [6], 1.88 µM. Moreover, the TGI was above 100 µM in [7], above 100 µM in test [9] and above 76.7 µM in test [10].
